Measured values: patent US10556865B2, “Synergistic herbicidal composition containing certain pyridine or pyrimidine carboxylic acids and certain cereal and rice herbicides” (Dow AgroSciences, LLC, priority 2007, dated 2020)

Columns and labels:
Type in all cases: in vivo
[1] = test system: wild buckwheat (Polygonum convolvulus L; POLCO); test: Postemergence herbicidal activity of mixtures in cereal crops (greenhouse, visual injury)
Experimental: (§1) Seeds of the desired test plant species were planted in Sun Gro MetroMix® 306 planting mixture, which typically has a pH of 6.0 to 6.8 and an organic matter content of about 30 percent, in plastic pots with a surface area of 103.2 square centimeters (cm^2). When required to ensure good germination and healthy plants, a fungicide treatment and/or other chemical or physical treatment was applied. The plants were grown for 7-36 days in a greenhouse with an approximate 14 hour photoperiod which was maintained at about 18° C. during the day and 17° C. during the night. Nutrients and water were added on a regular basis and supplemental lighting was provided with overhead metal halide 1000-Watt lamps as necessary. The plants were employed for testing when they reached the second or third true leaf stage.
(§2) Treatments consisted of compound (as listed in Tables 1 through 64) and a second cereal herbicide alone and in combination. Weighed amounts of esters (methyl) or salts (TEA [triethylammonium], K [potassium]) of 4-amino-3-chloro -6-(4-chloro-2-fluoro-3-methoxyphenyl)pyridine-2-carboxylic acid (Compound A) or of 6-amino-5-chloro-2-(4-chloro-2-fluoro-3-methoxyphenyl)pyrimidine-4-carboxylic acid (Compound B), were placed in 25 milliliter (mL) glass vials and dissolved in a volume of 97:3 v/v acetone/DMSO to obtain 4.5 milligrams (mg) active ingredient (ai)/mL stock solutions. […] The concentrated stock solutions were diluted to 1.5 mg ai/mL with the addition of 2 volumes of an aqueous mixture containing acetone, water, isopropyl alcohol, DMSO, Agri-dex crop oil concentrate, and Triton® X-77 surfactant in a 64.7:26.0:6.7:2.0:0.7:0.01 v/v ratio. A dilution solution was prepared by mixing 1 volume of 97:3 v/v acetone/DMSO and 2 volumes of an aqueous mixture containing acetone, water, isopropyl alcohol, DMSO, Agri-dex crop oil concentrate, and Triton® X-77 surfactant in a 64.7:26.0:6.7:2.0:0.7:0.01 v/v ratio. Compound requirements are based upon a 12 mL application volume at a rate of 187 liters per hectare (L/ha). Spray solutions of the second cereal herbicide and experimental compound mixtures were prepared by adding the stock solutions to the appropriate amount of dilution solution to form 12 mL spray solution with active ingredients in two- and three-way combinations. Formulated compounds were applied to the plant material with an overhead Mandel track sprayer equipped with 8002E nozzles calibrated to deliver 187 L/ha over an application area of 0.503 square meters (m^2) at a spray height of 18 inches (43 cm) above average plant canopy. Control plants were sprayed in the same manner with the solvent blank.
(§3) The treated plants and control plants were placed in a greenhouse as described above and watered by sub-irrigation to prevent wash-off of the test compounds. After 20-22 days, the condition of the test plants as compared with that of the control plants was determined visually and scored on a scale of 0 to 100 percent where 0 corresponds to no injury and 100 corresponds to complete kill.
(§4) Colby's equation was used to determine the herbicidal effects expected from the mixtures (Colby, S. R. 1967. Calculation of the synergistic and antagonistic response of herbicide combinations. Weeds 15:20-22.).
(§5) The following equation was used to calculate the expected activity of mixtures containing two active ingredients, A and B: Expected=A+B−(A×B/100)

[2] = test system: black mustard (Brassica nigra L; BRSNI); test: as above; settings: Brassica, post-emergence, read-out: BRSNI Ob
Experimental: as §1, §2, §3, §4, §5

[3] = test system: wild pansy (Viola tricolor L; VIOTR); test: as above
Experimental: (§6) The plants were grown for 7-36 days in a greenhouse with an approximate 14 hour photoperiod which was maintained at about 18° C. during the day and 17° C. during the night. Nutrients and water were added on a regular basis and supplemental lighting was provided with overhead metal halide 1000-Watt lamps as necessary. The plants were employed for testing when they reached the second or third true leaf stage.
(§7) Treatments consisted of compound (as listed in Tables 1 through 64) and a second cereal herbicide alone and in combination. […] Control plants were sprayed in the same manner with the solvent blank.
as §3, §5

[4] = test system: scented mayweed (Matricaria chamomila L; MATCH); test: as above
Experimental: as §6, §7, §3, §5

[5] = test system: Canada thistle (Cirsium arvense L; CIRAR); test: as above
Experimental: as §6, §7, §3, §5

[6] = test system: bird's-eye speedwell (Veronica persica L; VERPE); test: as above
Experimental: as §6, §7, §3, §5

[7] = test system: chickweed (Stellaria media L; STEME); test: as above; settings: for pest or weed control at 140 g/ha: 140 g/ha alone
Experimental: as §1, §2, §3, §4, §5

[8] = test system: windgrass (Apera spica-venti L; APESV); test: as above; settings: Apera spica-venti, post-emergence, read-out: APESV Ob
Experimental: as §1, with “When required to ensure good germination and healthy plants, a fungicide treatment and/or other chemical or physical treatment was applied.” left out
(§8) Treatments consisted of compound (as listed in Tables 1 through 64) and a second cereal herbicide alone and in combination. […] The concentrated stock solutions were diluted to 1.5 mg ai/mL with the addition of 2 volumes of an aqueous mixture containing acetone, water, isopropyl alcohol, DMSO, Agri-dex crop oil concentrate, and Triton® X-77 surfactant in a 64.7:26.0:6.7:2.0:0.7:0.01 v/v ratio. A dilution solution was prepared by mixing 1 volume of 97:3 v/v acetone/DMSO and 2 volumes of an aqueous mixture containing acetone, water, isopropyl alcohol, DMSO, Agri-dex crop oil concentrate, and Triton® X-77 surfactant in a 64.7:26.0:6.7:2.0:0.7:0.01 v/v ratio. Compound requirements are based upon a 12 mL application volume at a rate of 187 liters per hectare (L/ha). […] Formulated compounds were applied to the plant material with an overhead Mandel track sprayer equipped with 8002E nozzles calibrated to deliver 187 L/ha over an application area of 0.503 square meters (m^2) at a spray height of 18 inches […] above average plant canopy. Control plants were sprayed in the same manner with the solvent blank.
as §3, §4, §5

[9] = test system: downy brome (Bromus tectorum L; BROTE); test: as above
Experimental: as §1, §2, §3, §4, §5

[10] = test system: wild oats (Avena fatua L; AVEFA); test: as above; settings: 25 g/ha, Table 17
Experimental: as §1, with “When required to ensure good germination and healthy plants, a fungicide treatment and/or other chemical or physical treatment was applied.” left out
as §8, §3, §4, §5

[11] = test system: Italian ryegrass (Lolium multiflorum L; LOLMU); test: as above; settings: for LOLMU Ob: 25 g/ha
Experimental: as §1, §2, §3, §4, §5

[12] = test system: annual bluegrass (Poa annua L; POAAN); test: as above; settings: 25 g/ha
Experimental: as §1, §2, §3, §4, §5

[13] = test system: rigid ryegrass (Lolium rigidum L; LOLRI); test: as above
Experimental: as §1, §2, §3, §4, §5

[14] = test system: kochia (Kochia scoparia L; KCHSC); test: as above; settings: 450 g/ha alone
Experimental: as §1, §2, §3, §4, §5

[15] = test system: Leptochloa chinensis (L.) NEES (LEFCH); test: Postemergence herbicidal mixtures for weed control in direct seeded rice (greenhouse, visual % injury); settings: for % Injury Ob: LEFCH
[16] = test system: Ipomoea hederacea (L.) JACQ. (IPOHE); test: Postemergence herbicidal mixtures for weed control in direct seeded rice (greenhouse, visual % injury after 3 weeks); settings: IPOHE
Cyperus iria L. (CYPIR) = test: Postemergence herbicidal mixtures for weed control in direct seeded rice (greenhouse, visual % injury); settings: CYPIR
[17] = test system: annual ryegrass (Lolium multiflorum L; LOLMG); test: Postemergence herbicidal activity of mixtures in cereal crops (greenhouse, visual injury); settings: 125 g/ha, Table 13
Experimental: as §1, with “When required to ensure good germination and healthy plants, a fungicide treatment and/or other chemical or physical treatment was applied.” left out
as §8, §3, §4, §5

[18] = test system: littleseed Canarygrass (Phalaris minor L; PHAMI); test: as above; settings: 125 g/ha, Table 13
Experimental: as §1, with “When required to ensure good germination and healthy plants, a fungicide treatment and/or other chemical or physical treatment was applied.” left out
as §8, §3, §4, §5

[19] = Stellaria media, post-emergence, read-out: STEME Ob

Compound: CC(C)N1C(=O)c2ccccc2NS1(=O)=O [Bentazone]
- POLCO Ob ([1]; 120 g/ha): 0%
- pest or weed control at 120 g/ha ([2]; 120 g/ha): 50%

Compound: COc1ncc(F)c2nc(S(=O)(=O)Nc3c(F)cccc3F)nn12 [Florasulam]
- VIOTR Ob ([3]; 1.25 g/ha): 10%
- VIOTR Ob ([3]; 1.3 g/ha alone): 53%
- MATCH Ob ([4]; 1.3 g/ha alone): 83%
- CIRAR Ob ([5]; 1.25 g/ha): 20%
- VERPE Ob ([6]; 1.25 g/ha): 5%
- VERPE Ob ([6]; 1.3 g/ha alone): 28%

Compound: N#Cc1cc(Br)c(O)c(Br)c1 [Bromoxynil]
- pest or weed control at 70 g/ha ([4]; Matricaria, post-emergence, 70 g/ha, read-out: MATCH Ob): 0%
- pest or weed control at 70 g/ha ([2]; 70 g/ha): 50%
- pest or weed control at 70 g/ha ([7]; Stellaria media, post-emergence, 70 g/ha, read-out: STEME Ob): 0%

Compound: COc1cc(OC)nc(NC(=O)NS(=O)(=O)c2cc(CNS(C)(=O)=O)ccc2C(=O)O)n1 [Mesosulfuron, 2-[[[[(4,6-dimethoxy-2-pyrimidinyl)amino]carbonyl]amino]sulfonyl]-4-[[(methylsulfonyl)amino]-methyl]benzoic acid, reference compound]
- pest or weed control at 3.75 g/ha ([4]; Matricaria, post-emergence, 3.75 g/ha, read-out: MATCH Ob): 5%
- CIRAR Ob ([5]; 3.75 g/ha): 20%
- pest or weed control at 3.75 g/ha ([8]; 3.75 g/ha, Table 15): 93%
- BROTE Ob ([9]; 3.75 g/ha, Table 15): 75%
- BROTE Ob ([9]; 3.8 g/ha, Table 8): 73%
- pest or weed control at 3.75 g/ha ([7]; Stellaria media, post-emergence, 3.75 g/ha, read-out: STEME Ob): 0%

Compound: COc1nc(C)nc(NC(=O)NS(=O)(=O)c2ccsc2C(=O)O)n1 [Thifensulfuron]
- CIRAR Ob ([5]; 3.75 g/ha): 20%

Compound: COc1nc(C)nc(=NC(=O)NS(=O)(=O)c2ccccc2C(=O)O)[nH]1 [Metsulfuron]
- CIRAR Ob ([5]; 3.75 g/ha): 20%

Compound: CCCOc1nn(C(=O)NS(=O)(=O)c2ccccc2C(=O)OC)c(=O)n1C [Propoxycarbazone-Na, methyl 2-[[[(4,5-dihydro-4-methyl-5-oxo-3-propoxy-1H-1,2,4-triazol-1-yl)carbonyl]amino]sulfonyl]benzoate, reference compound]
- pest or weed control at 15 g/ha ([4]; Matricaria, post-emergence, 15 g/ha, read-out: MATCH Ob): 50%
- pest or weed control at 15 g/ha ([6]; Veronica persica, post-emergence, 15 g/ha, read-out: VERPE Ob): 5%
- AVEFA Ob [10]: 76%
- pest or weed control at 25 g/ha ([8]; 25 g/ha, Table 17): 90%
- LOLMU Ob ([11]; Table 10): 17%
- LOLMU Ob ([11]; Table 17): 15%
- POAAN Ob ([12]; Table 10): 7%
- POAAN Ob ([12]; Table 17): 5%
- BROTE Ob ([9]; 25 g/ha, Table 10): 92%
- LOLRI Ob ([13]; 25 g/ha, Table 17): 10%

Compound: Cc1ccc(NC(=O)N(C)C)cc1Cl [Chlorotoluron]
- KCHSC Ob [14]: 50%
- pest or weed control at 450 g/ha ([2]; 450 g/ha alone): 50%

Compound: O=C(O)CCCc1c[nH]c2ccccc12 [Indol-3-butyric acid]
- pest or weed control at 140 g/ha ([2]; 140 g/ha alone): 0%
- pest or weed control at 140 g/ha [7, 19]: 0%

Compound: COC(=O)c1c(Cl)nn(C)c1S(=O)(=O)NC(=O)Nc1nc(OC)cc(OC)n1 [Halosulfuron-methyl]
- % Injury LEFCH Ob ([15]; alone 26 g/ha): 0%
- % Injury LEFCH Ob ([15]; alone 52 g/ha): 0%

Compound: COc1cc(OC)nc(NC(=O)NS(=O)(=O)N(C)S(C)(=O)=O)n1 [Amidosulfuron]
- pest or weed control at 10 g/ha ([3]; Viola tricolor, post-emergence, 10 g/ha, read-out: VIOTR Ob): 5%
- CIRAR Ob ([5]; 10 g/ha): 20%
- pest or weed control at 10 g/ha ([6]; Veronica persica, post-emergence, 10 g/ha, read-out: VERPE Ob): 5%

Compound: C/C(=N\NC(=O)Nc1cc(F)cc(F)c1)c1ncccc1C(=O)O [Diflufenzopyr]
- % Injury Ob ([16]; 4.38 g/ha alone): 10%
- % Injury Ob ([16]; 8.75 g/ha alone): 40%
- % Injury Ob ([16]; 17.5 g/ha alone): 60%
- % Injury Ob ([16]; 35 g/ha alone): 65%
- % Injury Ob ([15]; 8.75 g/ha alone): 0%
- % Injury Ob (Cyperus iria L. (CYPIR); 4.38 g/ha alone): 10%
- % Injury Ob (Cyperus iria L. (CYPIR); 8.75 g/ha alone): 15%
- % Injury Ob (Cyperus iria L. (CYPIR); 17.5 g/ha alone): 20%
- % Injury Ob (Cyperus iria L. (CYPIR); 35 g/ha alone): 30%

Compound: CC1(C)CON(Cc2ccccc2Cl)C1=O [Clomazone]
- % Injury Ob ([15]; 560 g/ha alone): 40%
- % Injury Ob (Cyperus iria L. (CYPIR); 560 g/ha alone): 0%
- % Injury Ob (Cyperus iria L. (CYPIR); 1120 g/ha alone): 0%

Compound: COc1nc(C)nc(N(C)C(=O)NS(=O)(=O)c2ccccc2C(=O)O)n1 [Tribenuron]
- CIRAR Ob ([5]; 3.75 g/ha): 20%

Compound: O=C(O)Cc1c[nH]c2ccccc12 [Indol-3-acetic acid]
- pest or weed control at 140 g/ha ([4]; Matricaria, post-emergence, 140 g/ha alone, read-out: MATCH Ob): 0%
- POLCO Ob ([1]; 140 g/ha alone): 0%
- pest or weed control at 140 g/ha [7, 19]: 0%

Compound: 2-[4,5-dihydro-4-methyl-4-(1-methylethyl)-5-oxo-1H-imidazol-2-yl]-4(or 5)-methylbenzoic acid [Imazamethabenz, reference compound]
- MATCH Ob ([4]; 125 g/ha): 0%
- LOLMG Ob [17]: 0%
- PHAMI [18]: 0%
- LOLMU ([11]; 125 g/ha, Table 13): 0%
- LOLRI ([13]; 125 g/ha, Table 13): 0%
- STEME Ob ([7]; 125 g/ha): 10%
